Results taken from patent publication US7799907B2, “Method for the preparation of 2′-deoxy-2′,2′-difluorocytidine” (Hanmi Pharm. Co., Ltd, priority 2004, dated 2010).

Test: Stability of moisture content of the hemihydrate and dihydrate forms on storage
Type: physicochemical
Conditions: for stability for the moisture content changes: under the conditions shown in Table 1
[1] = 40° C. under 75% relative humidity, 1 day
[2] = 40° C. under 75% relative humidity, 7 days
[3] = 40° C. under 75% relative humidity, 14 days

Molecule | Moisture content (%) [1] [%] | Moisture content (%) [2] [%] | Moisture content (%) [3] [%] | Moisture content (%) (Air, 1 day) | Moisture content (%) (Air, 7 days) | Moisture content (%) (Air, 14 days) | stability for the moisture content changes
2′-Deoxy-2′,2′-difluorocytidine hemihydrate | 3.7 | 3.8 | 3.8 | 3.6 | 3.7 | 3.4 | stable
Nc1ccn([C@@H]2O[C@H](CO)[C@@H](O)C2(F)F)c(=O)n1.O.O [Dihydrate, 2′-Deoxy-2′,2′-difluorocytidine dihydrate] | 12.1 | 11.9 | 11.7 | 11.6 | 11.8 | 11.7 | stable
